# Experimental data as given in patent US20210309686A1, “QUATERNARY AMMONIUM SALTS OF NICOTINIC ACID AND NICOTINAMIDE MONONUCLOETIDES AND RIBOSIDES AS ANTI-AGING AGENTS” (Jumpstart Fertility Pty Ltd, priority 2018, published 2021).
# System: COV434 cells
# Experiment: NAD Cell Assays (NAD cycling method)
# Format: cell-based
# Details: COV434 cells treated at 200 uM for 4 hr; NAD normalized to protein; salt compared mole per mole with its parent counterpart
# Description: NAD levels were assayed based on the NAD cycling method of Zhu and Rand, PLoS One (2012), herein incorporated by reference. COV434 cells were maintained in 6 well plates and treated with the indicated compounds at a concentration of 200 uM for 4 hr. Media was removed, plates were washed in cold PBS and cells were scraped down in NAD extraction buffer containing 10 mM nicotinamide, 50 mM Tris HCl, 0.1% Triton X-100. Cells were homogenized by sonication for 5 seconds, and samples were centrifuged at 7,000 g for 5 min at 4 degrees. Aliquots were taken for later protein assay, and samples were then passed through 10 kDa amicon filters at 14,000 g, 30 min at 4 degrees to remove proteins from the sample. Each sample was measured in technical triplicate, with 25 μL sample added to 100 μL ADH cycling mix (0.2 mg/ml alcohol dehydrogenase enzyme, 2% ethanol, 100 mM Tris pH 8.5). Samples were allowed to cycle for 10 min at room temperature, followed by 50 μL addition of an MTT/PMS solution (0.1 mM phenazine methosulfate, 0.8 mM 3-(4,5-Dimethylthiazol-2-yl)-2,5-diphenyltetrazolium bromide), 100 mM Tris-HCl pH 8.5). Plates were then incubated for 15 min and absorbance was measured at 570 nm. NAD concentrations were extrapolated from a standard curve, and normalized to protein concentrations determined by BCA protein assay.
# The fold increase is obtained through a direct comparison on a mole per mole between the compared salt and its parent counterpart.
row,SMILES,Fold Increase of NAD Adjusted by Molecular Weight
1,"O=C([O-])c1ccc[n+]([C@@H]2O[C@H](COP(=O)(O)O)[C@@H](O)[C@H]2O)c1 [I-003, 1-Carboxy-N,N,N-trimethylmethanaminium 1-((2R,3R,4S,5R)-5-(((hydrogenphosphonato)oxy)methyl)-3,4-dihydroxytetrahydrofuran-2-yl)pyridin-1-ium-3-carboxylate]",1.51
2,"O=C([O-])c1ccc[n+]([C@@H]2O[C@H](COP(=O)(O)O)[C@@H](O)[C@H]2O)c1 [I-002, (R)-3-Carboxy-2-hydroxy-N,N,N-trimethylpropan-1-aminium 1-((2R,3R,4S,5R)-5-(((hydrogenphosphonato)oxy)methyl)-3,4-dihydroxytetrahydrofuran-2-yl)pyridin-1-ium-3-carboxylate]",1.47
3,"NC(=O)c1ccc[n+]([C@@H]2O[C@H](COP(=O)([O-])O)[C@@H](O)[C@H]2O)c1 [I-005, 1-Carboxy-N,N,N-trimethylmethanaminium ((2R,3S,4R,5R)-5-(3-carbamoylpyridin-1-ium-1-yl)-3,4-dihydroxytetrahydrofuran-2-yl)methyl phosphate]",1.35
4,"O=C([O-])c1ccc[n+]([C@@H]2O[C@H](COP(=O)(O)O)[C@@H](O)[C@H]2O)c1 [I-006, (R)-3-Carboxy-2-hydroxy-N,N,N-trimethylpropan-1-aminium 1-((2R,3R,4S,5R)-3,4-dihydroxy-5-((phosphonatooxy)methyl)tetrahydrofuran-2-yl)pyridin-1-ium-3-carboxylate]",1.64
5,"O=C([O-])c1ccc[n+]([C@@H]2O[C@H](COP(=O)(O)O)[C@@H](O)[C@H]2O)c1 [I-007, 1-Carboxy-N,N,N-trimethylmethanaminium 1-((2R,3R,4S,5R)-3,4-dihydroxy-5-((phosphonatooxy)methyl)tetrahydrofuran-2-yl)pyridin-1-ium-3-carboxylate]",1.92
